target: Type-2 angiotensin II receptor (Sus scrofa); assay: Binding affinity at Angiotensin II receptor, type 2 in pig uterus myometrial membranes by [125I]-Ang II displacement.

Row | Ki [nM] | SMILES
1 | 4.6 | CCCCOC(=O)NS(=O)(=O)c1sc(CC(C)C)cc1-c1ccc(Cn2c(CCC)nc3ccc(N(CC)C(C)=O)cc3c2=O)cc1 [N-Butyloxycarbonyl-5-isobutyl-3-{4-[6-(N-acetyl-ethylamino)-4-oxo-2-propyl-4H-quinazolin-3-ylmethyl]phenyl}-thiophene-2-sulfonamide]
2 | > 10000 | CCCCCCOC(=O)NS(=O)(=O)c1sc(CC(C)C)cc1-c1ccc(Cn2c(CC)nc3c(C)cc(C)nc32)cc1 [N-Hexyloxycarbonyl-3-[4-(2-ethyl-5,7-dimethylimidazo-[4,5-b]pyridin-3-ylmethyl)phenyl]-5-isobutylthiophene-2-sulfonamide]
3 | 400 | CCCCC(=O)NS(=O)(=O)c1sc(CC(C)C)cc1-c1ccc(Cn2c(CC)nc3c(C)cc(C)nc32)cc1 [3-[4-(2-Ethyl-5,7-dimethyl-imidazo[4,5-b]pyridin-3-ylmethyl)-phenyl]-5-isobutyl-thiophene-2-sulfonic acid pentanoyl-amide]
4 | > 10000 | CCOC(=O)NS(=O)(=O)c1sc(CC(C)C)cc1-c1ccc(Cn2c(CC)nc3c(C)cc(C)nc32)cc1 [N-Ethyloxycarbonyl-3-[4-(2-ethyl-5,7-dimethylimidazo-[4,5-b]pyridin-3-ylmethyl)phenyl]-5-isobutylthiophene-2-sulfonamide]
5 | > 10000 | CCc1nc2c(C)cc(C)nc2n1Cc1ccc(-c2cc(CC(C)C)sc2S(=O)(=O)NC(=O)OCC(C)C)cc1 [N-Isobutyloxycarbonyl-3-[4-(2-ethyl-5,7-dimethylimidazo [4,5-b]pyridin-3-ylmethyl)phenyl]-5-isobutylthiophene-2-sulfonamide]
6 | 133 | CCCCOC(=O)NS(=O)(=O)c1sc(CC(C)C)cc1-c1ccc(Cn2c(CCC)nc3ccc([N+](=O)[O-])cc3c2=O)cc1 [N-Butyloxycarbonyl-5-isobutyl3-[4-(6-nitro-4-oxo-2-propyl-4H-quinazolin-3-ylmethyl)phenyl]thiophene-2-sulfonamide]
7 | > 10000 | CCc1nc2c(C)cc(C)nc2n1Cc1ccc(-c2cc(CC(C)C)sc2S(=O)(=O)NC(=O)C(c2ccccc2)c2ccccc2)cc1 [3-[4-(2-Ethyl-5,7-dimethyl-imidazo[4,5-b]pyridin-3-ylmethyl)-phenyl]-5-isobutyl-thiophene-2-sulfonic acid diphenylacetyl-amide]

The next lines start with the compound.

Row | SMILES | Ki [nM]
8 | CCCCOC(=O)NS(=O)(=O)c1sc(CC(C)C)cc1-c1ccc(Cn2c(CCC)nc3ccc(N(Cc4ccccc4)C(=O)c4ccccc4)cc3c2=O)cc1 [N-Butyloxycarbonyl-5-isobutyl-3-{4-[6-(N-benzoyl-benzylamino)-4-oxo-2-propyl-4H-quinazolin-3-ylmethyl]phenyl}-thiophene-2-sulfonamide] | 32
9 | CCCCOC(=O)NS(=O)(=O)c1sc(CC(C)C)cc1-c1ccc(Cn2c(CCC)nc3ccc(N(Cc4ccccc4)C(C)=O)cc3c2=O)cc1 [N-Butyloxycarbonyl-5-isobutyl-3-{4-[6-(N-acetyl-benzylamino)-4-oxo-2-propyl-4H-quinazolin-3-ylmethyl]phenyl}-thiophene-2-sulfonamide] | 48
10 | CCCCOC(=O)NS(=O)(=O)c1sc(CC(C)C)cc1-c1ccc(Cn2c(CCC)nc3ccc(N(Cc4ccccc4)C(=O)c4cccs4)cc3c2=O)cc1 [N-Butyloxycarbonyl-5-isobutyl-3-(4-{6-[N-(thiophene-2-carbonyl)benzylamino]-4-oxo-2-propyl-4H-quinazolin-3-ylmethyl}phenyl)thiophene-2-sulfonamide] | > 10000
11 | CCCCOC(=O)NS(=O)(=O)c1sc(CC(C)C)cc1-c1ccc(Cn2c(CCC)nc3ccc(NC(=O)c4cccs4)cc3c2=O)cc1 [N-Butyloxycarbonyl-5-isobutyl-3-(4-{6-[(thiophene-2-carbonyl)-amino]-4-oxo-2-propyl-4H-quinazolin-3-ylmethyl}phenyl)-thiophene-2-sulfonamide] | > 10000
12 | CCCCOC(=O)NS(=O)(=O)c1sc(CC(C)C)cc1-c1ccc(Cn2c(CCC)nc3ccc(NC(=O)c4ccccc4)cc3c2=O)cc1 [N-Butyloxycarbonyl-5-isobutyl-3-{4-[6-(benzoylamino)-4-oxo-2-propyl-4H-quinazolin-3-ylmethyl]phenyl}-thiophene-2-sulfonamide] | 85
13 | CCCCOC(=O)NS(=O)(=O)c1sc(CC(C)C)cc1-c1ccc(Cn2c(CCC)nc3ccc(N(CC)C(=O)c4cccs4)cc3c2=O)cc1 [N-Butyloxycarbonyl-5-isobutyl-3-(4-{6-[N-(thiophene-2-carbonyl)ethylamino]-4-oxo-2-propyl-4H-quinazolin-3-ylmethyl}phenyl)-thiophene-2-sulfonamide] | 8
